This note sets out measurements from patent US20070213505A1, “Solution Synthesis of Peptide Cell Growth Stimulators” (priority 2006, published 2007).

Peptide text beside a SMILES is read from it.

One test has as its system CHO line. The test can be described thus: Effect of Gly-Lys-Gly on growth and productivity of a CHO line in chemically defined CHO medium. The test is classed as cell-based, Chinese Hamster. The following applies: CHO medium supplemented at the same concentrations as in the SP2/0 test; results not shown. The text has this:
In a previous experiment, a proprietary chemically defined Chinese Hamster Ovary (CHO) medium was supplemented with both the Centocor and Bachem-made peptides at the same concentrations above.

For test [1], the system named is transfectoma cell line which is an SP2/0 derived line engineered to produce an anti-cytokine monoclonal antibody (mAb). The test can be described thus: Effect of Gly-Lys-Gly on growth and productivity of a transfectoma cell line in MET1.5 shaker flask culture. The test is classed as cell-based. The conditions noted are these: for viable cell density: unsupplemented control 2.0×10^6. Here is the method: Two preparations of the tri-peptide, Gly-L-Lys-Gly, were compared for their effect on growth and productivity of a transfectoma cell line which is an SP2/0 derived line engineered to produce an anti-cytokine monoclonal antibody (mAb). The final lot of GKG prepared in Example V was compared to commercial prepared GKG purchased from Bachem (King of Prussia, Pa.).
Cells were cultured in a proprietary defined medium, MET1.5, supplemented with 7.0 mM glutamine, 10 g/L MHX, and 2.0 g/L sodium bicarbonate. The Centocor-made GKG peptide in quantities of 0.35 g/L, 0.70 g/L, and 1.40 g/L were added to 250 mL of MET 1.5 media. The GKG from Bachem was added to 250 mL of MET 1.5 media at concentrations of 0.38 g/L, 0.76g/L, and 1.5 g/L. The cells were cultured in 125 mL shaker flasks and were rotating at 125 RPM. The culture was also incubated at 37° C. in a humidified atmosphere with 5% CO2 and 95% air. The culture volume was 40 mL. Two control flasks and two flasks per peptide concentration were sampled at days zero, one, two, three, four, five, and six for viable cell density and antibody determination.
The cultures were inoculated at a density of 2×10^5 cells/mL and were passaged three times (split every three days). On the third passage they were incubated until the decline phase.
Viable cells and dead cells were calculated by trypan exclusion with the Cedex cell counter. The mAb concentrations were determined by immunoturbidity via the IMMAGE 800 nephelometer (Beckman, Coulter, Brea, Calif.). The effects of the Gly-Lys-Gly peptide on antibody secretion by a production cell line was gauged by calculating integral viable density (IVCC), and titer. IVCC was calculated by integrating the areas under the growth curves. Specific antibody productivity was calculated as the antibody production per day (titer) divided by IVCC.

On to `NCCCC[C@H](NC(=O)CN)C(=O)NCC(=O)O` [Centocor-made peptide, Glycyl-L-Lysyl-Glycine] (H-Gly-Lys-Gly-OH), for which the “effect on growth and productivity” value in the test with CHO line is “minimal to no effect”. The viable cell density in test [1] (0.35 g/L peptide in MET1.5, mean of two samples) is 2.5×10^6 viable cells/mL. Further, the “enhancement of the product yield or viable cell density” value in test [1] (0.7 g/L peptide in MET1.5) was “No enhancement”. Also, in test [1] (1.4 g/L peptide in MET1.5), the “increase in titer (concentration of mAb)” value stood at 21%; the “viable cell density and percent viability increases” value is listed as “could not be observed”.
Gly-L-Lys-Gly [Bachem-made-peptide]: the “effect on growth and productivity” value in the test with CHO line was “minimal to no effect”. The viable cell density in test [1] (0.38 g/L peptide in MET1.5, mean of two samples) is 2.6×10^6 viable cells/mL. This compound also gave a titer in test [1] (0.76 g/L peptide in MET1.5, rose from 117 mg/L without supplement, mean of two samples) of 137 mg/L. Moreover, in test [1] (1.5 g/L peptide in MET1.5), the “increase in titer (concentration of mAb)” value was determined as 34%; the “viable cell density and percent viability increases” value is “could not be observed”.
